In patent US20160168140A1, “HETEROCYCLIC COMPOUNDS AS ANTIBIOTIC POTENTIATORS” (priority 2014, published 2016):

Each compound was assayed on Acinetobacter baumannii (Ab23) (assay: MIC shift assay of antibiotics (broth microdilution)). Conditions: compound concentration 2 μM; fold shift of colistin MIC; nc = no changeover or no shift.
Format: cell-based
Method: Minimum inhibitory concentration (MIC) shift assays were performed to determine if the test compounds could alter the MIC of existing antibacterial drugs (e.g., ciprofloxacin and colistin) for E. coli, Acinetobacter baumannii, Klebsiella pneumoniae, Pseudomonas aeruginosa, and Enterobacter cloacae. The MIC shift assay is based on the standard broth microdilution MIC determination protocol of Wiegand et al, Nat Protoc. 3(2):163-75 (2008), with slight modifications that allow for the screening of up to seven test compounds in a single plate.
On the day before an assay, bacteria were grown overnight in cation-adjusted Mueller Hinton broth (CAMHB; Teknova, Hollister, Calif.) at 37° C. in an orbital shaker and sub-cultured at a 1:200 dilution the following morning. The cells were grown to OD600=0.5 to 0.8 and then diluted to OD600=0.01. From a serial dilution of each antibiotic at (50 μL of 2× concentrated stock solutions) several concentrations were added to the wells of a sterile, transparent round-bottom 96-well plate (Phenix Research Products, Candler, N.C.), and diluted cells (50 μL) were added to the plates for a starting OD600 of 0.005. […] A row of wells lacking test compound but containing the antibiotic was used to determine the MIC of that antibiotic alone. A column of wells lacking both antibiotic and test compound served as a growth control, and an additional column containing only CAMHB was included as a sterile blank control.
The plates were incubated for 18 to 20 h at 37° C. in an orbital shaker, and the cell density (OD600) was determined the following day in a microplate reader (PolarStar Optima, BMG Labtech). The MIC shift was determined by comparing the MIC of the antibiotic alone to the MIC of the antibiotic plus test compound.

colistin MIC shift, Ab23 at (compd concentration) | SMILES
4x | FC(F)(F)c1cc(-c2c[nH]c3cc(Cl)c(Cl)cc23)ccc1Cl [compound 436]
≧16x | CC(C)(c1c[nH]c2cc(Cl)c(Cl)cc12)c1c[nH]c2cc(Cl)c(Cl)cc12 [compound 440]
≧16x | FC(F)(F)c1ccc2c(-c3ccc(Cl)c(Cl)c3)n[nH]c2c1 [compound 441]

Same assay, conditions: compound concentration 4 μM; fold shift of colistin MIC; nc = no changeover or no shift

colistin MIC shift, Ab23 at (compd concentration) | SMILES
4-8x | CCN(CC)CCCC(C)Nc1nc(-c2cccc(-c3cc(F)cc(C(F)(F)F)c3)c2)nc2c(C)cccc12 (centres unmarked) [compound 475]
16x | CCN(CC)CCCC(C)Nc1nc(-c2cccc(-c3ccc(C(F)(F)F)c(F)c3)c2)nc2c(C)cccc12 (centres unmarked) [compound 476]
4x | CNCCCNc1nc(-c2cccc(-c3cccc(C(F)(F)F)c3)c2)nc2c(C)cccc12 [compound 478]
8x | CCN(CC)CCCC(C)Nc1nc(-c2cccc(-c3ccccc3)c2)nc2cc(C(F)(F)F)ccc12 (centres unmarked) [compound 479]
4x | CN(C)CCCNc1nc(-c2cccc(-c3ccccc3)c2)nc2cc(C(F)(F)F)ccc12 [compound 480]
8x | CCN(CC)CCCC(C)Nc1nc(-c2cccc(-c3cc(C(F)(F)F)ccc3F)c2)nc2cc(C(F)(F)F)ccc12 (centres unmarked) [compound 481]
32x | CN(C)CCCNc1nc(-c2cccc(-c3cc(C(F)(F)F)ccc3F)c2)nc2cc(C(F)(F)F)ccc12 [compound 482]
16x | CCN(CC)CCCC(C)Nc1nc(-c2cccc(-c3cccc(Cl)c3Cl)c2)nc2c(C)cccc12 (centres unmarked) [compound 483]
16x | Cc1cccc2c(NCCCN(C)C)nc(-c3cccc(-c4cccc(Cl)c4Cl)c3)nc12 [compound 484]
4x | CN(C)CCCNc1nc(-c2cccc(-c3ccccc3)c2)nc2c(Cl)cccc12 [compound 486]
32x | CN(C)CCCNc1nc(-c2cccc(-c3ccc(Cl)c(Cl)c3)c2)nc2c(Cl)cccc12 [compound 488]
16x | CN(C)CCCNc1nc(-c2cccc(-c3ccc(C(F)(F)F)c(F)c3)c2)nc2c(Cl)cccc12 [compound 489]
16x | CN(C)CCCNc1nc(-c2cccc(-c3cccc(Cl)c3Cl)c2)nc2c(Cl)cccc12 [compound 490]
32x | CN(C)CCCNc1nc(-c2cccc(-c3cc(F)cc(C(F)(F)F)c3)c2)nc2c(Cl)cccc12 [compound 491]
16x | CCN(CC)CCCC(C)Nc1nc(-c2cc(-c3cccc(C(F)(F)F)c3)cc(C(F)(F)F)c2)nc2c(C)cccc12 (centres unmarked) [compound 493]
16x | Cc1cccc2c(NCCCN(C)C)nc(-c3cc(-c4cccc(C(F)(F)F)c4)cc(C(F)(F)F)c3)nc12 [compound 494]
16x | CCN(CC)CCCC(C)Nc1nc(-c2cc(-c3ccc(C(F)(F)F)cc3)cc(C(F)(F)F)c2)nc2c(C)cccc12 (centres unmarked) [compound 495]
16x | Cc1cccc2c(NCCCN(C)C)nc(-c3cc(-c4ccc(C(F)(F)F)cc4)cc(C(F)(F)F)c3)nc12 [compound 496]
32x | Cc1cccc2c(N(C)CCCN(C)C)nc(-c3cc(Br)cc(C(F)(F)F)c3)nc12 [compound 502]
8x | Cc1cc(-c2nc(NCCCN(C)C)c3cccc(C)c3n2)cc(C(F)(F)F)c1 [compound 507]
8x | Cc1cccc2c(NCCCN(C)C)nc(-c3cc(F)cc(C(F)(F)F)c3)nc12 [compound 508]
64x | Cc1cccc2c(NCCCN(C)C)nc(-c3cc(-c4ccccc4C(F)(F)F)cc(C(F)(F)F)c3)nc12 [compound 509]
16x | Cc1cccc2c(NCCCN(C)C)nc(-c3cc(-c4cccnc4)cc(C(F)(F)F)c3)nc12 [compound 510]
64x | Cc1c(Cl)ccc2c(NCCCN(C)C)nc(-c3cc(Br)cc(C(F)(F)F)c3)nc12 [compound 511]
64x | Cc1c(Br)ccc2c(NCCCN(C)C)nc(-c3cc(Br)cc(C(F)(F)F)c3)nc12 [compound 512]
32x | Cc1cccc2c(NCCCN(C)C)nc(-c3cc(-c4ccccc4Cl)cc(C(F)(F)F)c3)nc12 [compound 513]

Further lines, the compound ahead of its results:

SMILES | colistin MIC shift, Ab23 at (compd concentration)
FC(F)(F)c1cccc(-c2ccc3[nH]cc(-c4ccc(Cl)c(Cl)c4)c3c2)c1 [compound 438] | 2x
CCN(CC)CCCC(C)Nc1nc(-c2ccc3cc(Cl)c(Cl)cc3c2)nc2c(C)cccc12 (centres unmarked) [compound 443] | 16x
Cc1cccc2c(NCCCN(C)C)nc(-c3ccc4cc(Cl)c(Cl)cc4c3)nc12 [compound 444] | 16x
Cc1cccc2c(NCCCN(C)C)nc(-c3cc(Br)c4ccccc4c3)nc12 [compound 446] | 8-16x
CCN(CC)CCCC(C)Nc1nc(-c2cc(Cc3ccccc3)c3ccccc3c2)nc2c(C)cccc12 (centres unmarked) [compound 447] | 4x
Cc1cccc2c(NCCCN3CCNCC3)nc(-c3cc(Br)cc(C(F)(F)F)c3)nc12 [compound 462] | 64x
CCN(CC)CCCC(C)Nc1nc(-c2cccc(-c3cccc(C(F)(F)F)c3)c2)nc2c(C)cccc12 (centres unmarked) [compound 465] | 8-16x
Cc1cccc2c(NCCCN(C)C)nc(-c3cccc(-c4cccc(C(F)(F)F)c4)c3)nc12 [compound 466] | 8-16x
COc1ccc2c(NCCCN(C)C)nc(/C=C/c3ccc(Cl)c(Cl)c3)nc2c1C [compound 467, (E)-N^1-(2-(3,4-dichlorostyryl)-7-methoxy-8-methylquinazolin-4-yl)-N^3,N^3-dimethylpropane-1,3-diamine] | 16x
Cc1cccc2c(NCCCN(C)C)nc(-c3cccc(-c4ccc(Cl)c(Cl)c4)c3)nc12 [compound 468] | 16-32x
CCN(CC)CCCC(C)Nc1nc(-c2cccc(-c3cc(Cl)cc(Cl)c3)c2)nc2c(C)cccc12 (centres unmarked) [compound 469] | 16x
Cc1cccc2c(NCCCN(C)C)nc(-c3cccc(-c4cc(Cl)cc(Cl)c4)c3)nc12 [compound 470] | 2x
CCN(CC)CCCC(C)Nc1nc(-c2cccc(-c3ccc(C(F)(F)F)cc3F)c2)nc2c(C)cccc12 (centres unmarked) [compound 471] | 8x
Cc1cccc2c(NCCCN(C)C)nc(-c3cccc(-c4ccc(C(F)(F)F)cc4F)c3)nc12 [compound 472] | 16x
CCN(CC)CCCC(C)Nc1nc(-c2cccc(-c3cc(C(F)(F)F)ccc3F)c2)nc2c(C)cccc12 (centres unmarked) [compound 473] | 16x
Cc1cccc2c(NCCCN(C)C)nc(-c3cccc(-c4cc(C(F)(F)F)ccc4F)c3)nc12 [compound 474] | 32x

Same assay, conditions: compound concentration 8 μM; fold shift of colistin MIC; nc = no changeover or no shift

colistin MIC shift, Ab23 at (compd concentration) [x] | SMILES
16 | CCN(CC)CCCC(C)Nc1nc(-c2cc(Br)c3ccccc3c2)nc2c(C)cccc12 (centres unmarked) [compound 445]
16 | Cc1cccc2c(NCCCN(C)C)nc(-c3cccc(C(F)(F)F)c3)nc12 [compound 499]
16 | COc1cc(-c2nc(NCCCN(C)C)c3cccc(C)c3n2)cc(C(F)(F)F)c1 [compound 504]

Same assay, conditions: compound concentration 10 μM; fold shift of colistin MIC; nc = no changeover or no shift

colistin MIC shift, Ab23 at (compd concentration) [x] | SMILES
8 | CCN(CC)CCCC(C)Nc1nc(-c2cccc(-c3ccccc3)c2)nc2c(Cl)cccc12 (centres unmarked) [compound 485]
4 | CCN(CC)CCCC(C)Nc1nc(-c2cc(N3CCOCC3)cc(C(F)(F)F)c2)nc2c(C)cccc12 (centres unmarked) [compound 500]
8 | Cc1cccc2c(NCCCN(C)C)nc(-c3cc(N4CCOCC4)cc(C(F)(F)F)c3)nc12 [compound 501]
4 | CN(C)CCCNc1nc(-c2cc(Br)cc(C(F)(F)F)c2)nc2c(F)cccc12 [compound 503]

Further lines, the compound ahead of its results:

SMILES | colistin MIC shift, Ab23 at (compd concentration) [x]
FC(F)(F)c1cc(-c2c[nH]c3cc(Cl)c(Cl)cc23)cc(C(F)(F)F)c1 [compound 435] | 16
Cc1cccc2c(NCCCN(C)C)nc(-c3cccc(Br)c3)nc12 [compound 455] | 4
Cc1cccc2c(NCCCN(C)C)nc(-c3ccc(Cl)c(Cl)c3)nc12 [compound 458] | 16
Cc1cccc2c(NCCCN3CCOCC3)nc(-c3cc(Br)cc(C(F)(F)F)c3)nc12 [compound 459] | 8
